According to ChEMBL document CHEMBL1150034, “Synthesis of peptidyl acetals as inhibitors of prolyl endopeptidase” (Bioorg Med Chem Lett, 1995):

Target: T1, Prolyl endopeptidase (Homo sapiens, UniProt P48147)
T1 sequence (P48147 whole entry): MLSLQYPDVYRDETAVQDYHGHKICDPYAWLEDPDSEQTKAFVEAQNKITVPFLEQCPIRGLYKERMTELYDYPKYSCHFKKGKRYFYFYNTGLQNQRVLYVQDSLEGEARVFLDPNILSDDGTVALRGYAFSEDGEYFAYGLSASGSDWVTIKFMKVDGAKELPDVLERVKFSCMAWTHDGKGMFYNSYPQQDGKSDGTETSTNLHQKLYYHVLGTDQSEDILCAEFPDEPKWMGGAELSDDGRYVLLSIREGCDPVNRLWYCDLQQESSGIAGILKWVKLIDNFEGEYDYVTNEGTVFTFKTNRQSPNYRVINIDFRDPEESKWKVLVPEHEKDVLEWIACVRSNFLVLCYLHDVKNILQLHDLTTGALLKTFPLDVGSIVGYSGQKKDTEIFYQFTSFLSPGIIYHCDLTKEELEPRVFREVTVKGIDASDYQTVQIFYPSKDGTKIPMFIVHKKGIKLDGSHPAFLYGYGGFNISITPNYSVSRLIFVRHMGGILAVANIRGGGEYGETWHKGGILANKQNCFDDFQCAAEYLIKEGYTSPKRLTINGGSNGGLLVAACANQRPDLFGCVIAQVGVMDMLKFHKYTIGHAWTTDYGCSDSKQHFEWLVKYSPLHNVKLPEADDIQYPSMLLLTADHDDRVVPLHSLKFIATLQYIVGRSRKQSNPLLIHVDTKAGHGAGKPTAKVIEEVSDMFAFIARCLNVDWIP
Test: Compound was evaluated for the inhibition of prolyl endopeptidase (PEP) purified from human peripheral blood mononuclear cells

COCC1COC(C2CCCN2C(=O)C2CCCN2C(=O)OCc2ccccc2)O1 (configuration not stated)
IC50: 6.5 µM

COC(OC)C1CSCN1C(=O)C1CSCN1C(=O)OCc1ccccc1 (configuration not stated)
IC50: 2.6 µM
